Test results: ChEMBL document CHEMBL1201861, “Genomics of Drug Sensitity in Cancer screening data, Wellcome Trust Sanger Institute”

Key:
NB1 = assay: cells; assay type: functional, cell-based, Homo sapiens; settings: Homo sapiens, NB1
Description: SANGER: Inhibition of human NB1 cell growth in a cell viability assay.

NCI-H1417 = assay: cells; assay type: functional, cell-based, Homo sapiens; settings: Homo sapiens, NCI-H1417
Description: SANGER: Inhibition of human NCI-H1417 cell growth in a cell viability assay.

LC-1F = assay: cells; assay type: functional, cell-based, Homo sapiens; settings: Homo sapiens, LC-1F
Description: SANGER: Inhibition of human LC-1F cell growth in a cell viability assay.

NCCIT = assay: SANGER: Inhibition of human NCCIT cell growth in a cell viability assay.; assay type: functional, cell-based; settings: Homo sapiens, NCCIT
NB14 = assay: cells; assay type: functional, cell-based, Homo sapiens; settings: Homo sapiens, NB14
Description: SANGER: Inhibition of human NB14 cell growth in a cell viability assay.

SU-DHL-1 = assay: SANGER: Inhibition of human SU-DHL-1 cell growth in a cell viability assay.; assay type: functional, cell-based; settings: Homo sapiens, SU-DHL-1
RL95-2 = assay: cells; assay type: functional, cell-based; settings: Homo sapiens
Description: SANGER: Inhibition of human RL95-2 cell growth in a cell viability assay.

NCI-H64 = assay: cells; assay type: functional, cell-based, Homo sapiens; settings: Homo sapiens, NCI-H64
Description: SANGER: Inhibition of human NCI-H64 cell growth in a cell viability assay.

CMK = assay: cells; assay type: functional, cell-based, Homo sapiens; settings: Homo sapiens, CMK
Description: SANGER: Inhibition of human CMK cell growth in a cell viability assay.

NCI-H716 = assay: cells; assay type: functional, cell-based, Homo sapiens; settings: Homo sapiens, NCI-H716
Description: SANGER: Inhibition of human NCI-H716 cell growth in a cell viability assay.

TE-15 = assay: cells; assay type: functional, cell-based, Homo sapiens; settings: Homo sapiens, TE-15
Description: SANGER: Inhibition of human TE-15 cell growth in a cell viability assay.

CP50-MEL-B = assay: cells; assay type: functional, cell-based, Homo sapiens; settings: Homo sapiens, CP50-MEL-B
Description: SANGER: Inhibition of human CP50-MEL-B cell growth in a cell viability assay.

C3A = assay: cells; assay type: functional, cell-based, Homo sapiens; settings: Homo sapiens, C3A
Description: SANGER: Inhibition of human C3A cell growth in a cell viability assay.

CAL-39 = assay: cells; assay type: functional, cell-based, Homo sapiens; settings: Homo sapiens, CAL-39
Description: SANGER: Inhibition of human CAL-39 cell growth in a cell viability assay.

HEC-1 = assay: cells; assay type: functional, cell-based, Homo sapiens; settings: Homo sapiens, HEC-1
Description: SANGER: Inhibition of human HEC-1 cell growth in a cell viability assay.

SW756 = assay: cells; assay type: functional, cell-based, Homo sapiens; settings: Homo sapiens, SW756
Description: SANGER: Inhibition of human SW756 cell growth in a cell viability assay.

LN-405 = assay: cells; assay type: functional, cell-based, Homo sapiens; settings: Homo sapiens, LN-405
Description: SANGER: Inhibition of human LN-405 cell growth in a cell viability assay.

LCLC-97TM1 = assay: cells; assay type: functional, cell-based, Homo sapiens; settings: Homo sapiens, LCLC-97TM1
Description: SANGER: Inhibition of human LCLC-97TM1 cell growth in a cell viability assay.

SW48 = assay: cells; assay type: functional, cell-based, Homo sapiens; settings: Homo sapiens, SW48
Description: SANGER: Inhibition of human SW48 cell growth in a cell viability assay.

UACC-62 = assay: cells; assay type: functional, cell-based, Homo sapiens; settings: Homo sapiens, UACC-62
Description: SANGER: Inhibition of human UACC-62 cell growth in a cell viability assay.

T-24 = assay: cells; assay type: functional, cell-based, Homo sapiens; settings: Homo sapiens, T-24
Description: SANGER: Inhibition of human T-24 cell growth in a cell viability assay.

HTC-C3 = assay: cells; assay type: functional, cell-based, Homo sapiens; settings: Homo sapiens, HTC-C3
Description: SANGER: Inhibition of human HTC-C3 cell growth in a cell viability assay.

HCC38 = assay: cells; assay type: functional, cell-based, Homo sapiens; settings: Homo sapiens, HCC38
Description: SANGER: Inhibition of human HCC38 cell growth in a cell viability assay.

SW780 = assay: cells; assay type: functional, cell-based, Homo sapiens; settings: Homo sapiens, SW780
Description: SANGER: Inhibition of human SW780 cell growth in a cell viability assay.

VM-CUB-1 = assay: cells; assay type: functional, cell-based, Homo sapiens; settings: Homo sapiens, VM-CUB-1
Description: SANGER: Inhibition of human VM-CUB-1 cell growth in a cell viability assay.

NCI-H1993 = assay: cells; assay type: functional, cell-based, Homo sapiens; settings: Homo sapiens, NCI-H1993
Description: SANGER: Inhibition of human NCI-H1993 cell growth in a cell viability assay.

HCT-15 = assay: cells; assay type: functional, cell-based, Homo sapiens; settings: Homo sapiens, HCT-15
Description: SANGER: Inhibition of human HCT-15 cell growth in a cell viability assay.

HuO-3N1 = assay: cells; assay type: functional, cell-based, Homo sapiens; settings: Homo sapiens, HuO-3N1
Description: SANGER: Inhibition of human HuO-3N1 cell growth in a cell viability assay.

NCI-H358 = assay: cells; assay type: functional, cell-based, Homo sapiens; settings: Homo sapiens, NCI-H358
Description: SANGER: Inhibition of human NCI-H358 cell growth in a cell viability assay.

LU-99A = assay: cells; assay type: functional, cell-based, Homo sapiens; settings: Homo sapiens, LU-99A
Description: SANGER: Inhibition of human LU-99A cell growth in a cell viability assay.

CAL-51 = assay: cells; assay type: functional, cell-based, Homo sapiens; settings: Homo sapiens, CAL-51
Description: SANGER: Inhibition of human CAL-51 cell growth in a cell viability assay.

BHT-101 = assay: cells; assay type: functional, cell-based, Homo sapiens; settings: Homo sapiens, BHT-101
Description: SANGER: Inhibition of human BHT-101 cell growth in a cell viability assay.

SAS = assay: cells; assay type: functional, cell-based, Homo sapiens; settings: Homo sapiens, SAS
Description: SANGER: Inhibition of human SAS cell growth in a cell viability assay.

GMS-10 = assay: cells; assay type: functional, cell-based, Homo sapiens; settings: Homo sapiens, GMS-10
Description: SANGER: Inhibition of human GMS-10 cell growth in a cell viability assay.

Ca9-22 = assay: cells; assay type: functional, cell-based, Homo sapiens; settings: Homo sapiens, Ca9-22
Description: SANGER: Inhibition of human Ca9-22 cell growth in a cell viability assay.

CAL-62 = assay: cells; assay type: functional, cell-based, Homo sapiens; settings: Homo sapiens, CAL-62
Description: SANGER: Inhibition of human CAL-62 cell growth in a cell viability assay.

KYSE-510 = assay: cells; assay type: functional, cell-based, Homo sapiens; settings: Homo sapiens, KYSE-510
Description: SANGER: Inhibition of human KYSE-510 cell growth in a cell viability assay.

MKN-1 = assay: cells; assay type: functional, cell-based, Homo sapiens; settings: Homo sapiens, MKN-1
Description: SANGER: Inhibition of human MKN1 cell growth in a cell viability assay.

S-117 = assay: cells; assay type: functional, cell-based, Homo sapiens; settings: Homo sapiens, S-117
Description: SANGER: Inhibition of human S-117 cell growth in a cell viability assay.

NCI-H1623 = assay: cells; assay type: functional, cell-based, Homo sapiens; settings: Homo sapiens, NCI-H1623
Description: SANGER: Inhibition of human NCI-H1623 cell growth in a cell viability assay.

IGROV-1 = assay: cells; assay type: functional, cell-based, Homo sapiens; settings: Homo sapiens, IGROV-1
Description: SANGER: Inhibition of human IGROV-1 cell growth in a cell viability assay.

H4 = assay: cells; assay type: functional, cell-based, Homo sapiens; settings: Homo sapiens, H4
Description: SANGER: Inhibition of human H4 cell growth in a cell viability assay.

639-V = assay: cells; assay type: functional, cell-based, Homo sapiens; settings: Homo sapiens, 639-V
Description: SANGER: Inhibition of human 639-V cell growth in a cell viability assay.

CaR-1 = assay: cells; assay type: functional, cell-based, Homo sapiens; settings: Homo sapiens, CaR-1
Description: SANGER: Inhibition of human CaR-1 cell growth in a cell viability assay.

HN = assay: cells; assay type: functional, cell-based, Homo sapiens; settings: Homo sapiens, HN
Description: SANGER: Inhibition of human HN cell growth in a cell viability assay.

NCI-H1793 = assay: cells; assay type: functional, cell-based, Homo sapiens; settings: Homo sapiens, NCI-H1793
Description: SANGER: Inhibition of human NCI-H1793 cell growth in a cell viability assay.

PANC-03-27 = assay: cells; assay type: functional, cell-based, Homo sapiens; settings: Homo sapiens, PANC-03-27
Description: SANGER: Inhibition of human PANC-03-27 cell growth in a cell viability assay.

NCI-H661 = assay: cells; assay type: functional, cell-based, Homo sapiens; settings: Homo sapiens, NCI-H661
Description: SANGER: Inhibition of human NCI-H661 cell growth in a cell viability assay.

## COc1cc(N2CCN(C)CC2)ccc1Nc1ncc2c(n1)N(C)c1ccccc1C(=O)N2C
NB1
  IC50: > 8 µM
NCI-H1417
  IC50: > 8 µM
LC-1F
  IC50: > 8 µM
NCCIT
  IC50: 4.15 µM
NB14
  IC50: > 8 µM
SU-DHL-1
  IC50: > 8 µM
RL95-2
  IC50: > 8 µM
NCI-H64
  IC50: > 8 µM
CMK
  IC50: 3.88 µM
NCI-H716
  IC50: > 8 µM
TE-15
  IC50: > 8 µM

## COc1cc(-c2nn([C@H]3CC[C@H](N4CCN(C(C)=O)CC4)CC3)c3ncnc(N)c23)ccc1NC(=O)c1cc2ccccc2n1C
NB1
  IC50: > 5.12 µM
NCI-H1417
  IC50: > 5.12 µM
LC-1F
  IC50: > 5.12 µM
NCCIT
  IC50: > 5.12 µM
NB14
  IC50: > 5.12 µM
SU-DHL-1
  IC50: > 5.12 µM
RL95-2
  IC50: 0.379 µM
NCI-H64
  IC50: > 5.12 µM
CMK
  IC50: > 5.12 µM
NCI-H716
  IC50: > 5.12 µM
TE-15
  IC50: 0.279 µM

## OCCCNc1cc(-c2ccnc(Nc3cccc(Cl)c3)n2)ccn1
NB1
  IC50: 0.0843 µM
NCI-H1417
  IC50: > 0.256 µM
LC-1F
  IC50: 0.117 µM
NCCIT
  IC50: 0.0485 µM
NB14
  IC50: > 0.256 µM
SU-DHL-1
  IC50: 0.211 µM
RL95-2
  IC50: 0.177 µM
NCI-H64
  IC50: 0.0903 µM
CMK
  IC50: > 0.256 µM
NCI-H716
  IC50: > 0.256 µM
TE-15
  IC50: 0.0394 µM

## N#Cc1c(O)c2c(-c3ccc(-c4ccccc4O)cc3)csc2[nH]c1=O
NB1
  IC50: > 1.02 µM
CP50-MEL-B
  IC50: > 1.02 µM
C3A
  IC50: > 1.02 µM
NCI-H1417
  IC50: 0.439 µM
CAL-39
  IC50: > 1.02 µM
HEC-1
  IC50: > 1.02 µM
LC-1F
  IC50: > 1.02 µM
SW756
  IC50: > 1.02 µM
NCCIT
  IC50: > 1.02 µM
LN-405
  IC50: > 1.02 µM
SU-DHL-1
  IC50: > 1.02 µM
LCLC-97TM1
  IC50: > 1.02 µM
SW48
  IC50: > 1.02 µM
UACC-62
  IC50: > 1.02 µM
T-24
  IC50: > 1.02 µM
HTC-C3
  IC50: > 1.02 µM
HCC38
  IC50: > 1.02 µM
SW780
  IC50: > 1.02 µM
RL95-2
  IC50: > 1.02 µM
VM-CUB-1
  IC50: > 1.02 µM
NCI-H1993
  IC50: > 1.02 µM
HCT-15
  IC50: > 1.02 µM
NCI-H64
  IC50: > 1.02 µM
CMK
  IC50: 0.0022 µM
HuO-3N1
  IC50: > 1.02 µM
NCI-H358
  IC50: > 1.02 µM
NCI-H716
  IC50: > 1.02 µM
LU-99A
  IC50: > 1.02 µM
CAL-51
  IC50: > 1.02 µM
BHT-101
  IC50: > 1.02 µM
SAS
  IC50: > 1.02 µM
GMS-10
  IC50: > 1.02 µM
Ca9-22
  IC50: > 1.02 µM
CAL-62
  IC50: > 1.02 µM
KYSE-510
  IC50: > 1.02 µM
MKN-1
  IC50: > 1.02 µM
S-117
  IC50: > 1.02 µM
NCI-H1623
  IC50: > 1.02 µM
IGROV-1
  IC50: > 1.02 µM
H4
  IC50: > 1.02 µM
639-V
  IC50: > 1.02 µM
CaR-1
  IC50: > 1.02 µM
HN
  IC50: > 1.02 µM
NCI-H1793
  IC50: > 1.02 µM
PANC-03-27
  IC50: > 1.02 µM
NCI-H661
  IC50: > 1.02 µM
TE-15
  IC50: > 1.02 µM

## Cc1ccc(-c2c(C(=O)CCl)n(CCCO)c3ncnc(N)c23)cc1
NB1
  IC50: > 4 µM
NCI-H1417
  IC50: > 4 µM
LC-1F
  IC50: > 4 µM
NCCIT
  IC50: > 4 µM
NB14
  IC50: > 4 µM
SU-DHL-1
  IC50: > 4 µM
RL95-2
  IC50: > 4 µM
NCI-H64
  IC50: > 4 µM
CMK
  IC50: > 4 µM
NCI-H716
  IC50: > 4 µM
TE-15
  IC50: 1.82 µM

## C#Cc1cccc(Nc2ncnc3cc(OCCOC)c(OCCOC)cc23)c1 [ERLOTINIB]
NCI-H1417
  IC50: > 2 µM
LC-1F
  IC50: 0.606 µM
NCCIT
  IC50: > 2 µM
NB14
  IC50: > 2 µM
SU-DHL-1
  IC50: > 2 µM
RL95-2
  IC50: > 2 µM
NCI-H64
  IC50: > 2 µM
CMK
  IC50: > 2 µM
NCI-H716
  IC50: > 2 µM
TE-15
  IC50: > 2 µM
